Assays:
pea hypocotyl explants = experiment: Toxicity of galactose to pea hypocotyl explants; format: cell-based, Pisum sativum; conditions: after 5 weeks; versus control medium with 20 g/l sucrose (no galactose)
Method: In order to be useful for selection, the selective component (otherwise called selective agent) should not be able to sustain significant growth and preferably have adverse/toxic effects to the non-transformed cells/tissues. To assess the applicability of galactose selection following transformation, a number of plant species representing a range of different botanical families were tested for sensitivity to galactose, using explants which may be suitable for transformation experiments. Hypocotyl explants useful for the transformation of pea were prepared by excising the hypocotyl from 7 d old seedlings and transferred to a medium, according to Nielsen er al. (1991. Physiol. Plant 82: 99-102), containing various concentrations of sucrose and galactose. After 5 weeks, the growth of the explants were evaluated.

[1] = test system: oil seed rape hypocotyl explants; experiment: Toxicity of galactose to oil seed rape hypocotyl explants (shoot regeneration); format: cell-based, Brassica napus
Method: (§1) In order to be useful for selection, the selective component (otherwise called selective agent) should not be able to sustain significant growth and preferably have adverse/toxic effects to the non-transformed cells/tissues. To assess the applicability of galactose selection following transformation, a number of plant species representing a range of different botanical families were tested for sensitivity to galactose, using explants which may be suitable for transformation experiments.
Hypocotyl explants useful for the transformation of oil seed rape were prepared using a protocol modified after Radke et al. (1988. Theor. Appl. Genet. 78: 161-168). Hypocotyls of 5 d old seedlings were cut into 1 cm segments and transferred to modified MS-medium (Murashige and Skoog 1962. Physiol. Plant. 15: 473-497) containing sucrose and galactose according to the experiment. After 3-4 weeks, shoots were harvested and the explants were transferred to fresh medium of the same composition. This was repeated for 3 more harvests and the total number of regenerated shoots formed on each medium was calculated (see table below).

Petunia = experiment: Sensitivity of Petunia to galactose; format: cell-based
Method: as §1

[2] = test system: sugar beet cotyledonary explants; experiment: Toxicity of galactose to sugar beet cotyledonary explants; format: cell-based, Beta vulgaris; conditions: 20 g/l sucrose and various concentrations galactose; 4-5 weeks
Method: In order to be useful for selection, the selective component (otherwise called selective agent) should not be able to sustain significant growth and preferably have adverse/toxic effects to the non-transformed cells/tissues. To assess the applicability of galactose selection following transformation, a number of plant species representing a range of different botanical families were tested for sensitivity to galactose, using explants which may be suitable for transformation experiments. Cotyledonary explants useful for the transformation of sugar beet were prepared by excising the cotyledons from […] seedlings (Joersbo er al. 1998. Mol. Breeding 4: 111-117). The leaves were transferred to modified MS-medium (Murashiee and Skoog 1962. Physiol. Plant. 15: 473-497) containing 20 g/l sucrose and various concentrations galactose.

[3] = test system: oil seed rape hypocotyl explants inoculated with Agrobacterium tumefaciens EHA101; experiment: Selection of transgenic oil seed rape on galactose containing media; format: cell-based, Brassica napus; conditions: galactose 2.5 g/l, sucrose 10 g/l
Method: Hypocotyl explants of oil seed rape were prepared using a protocol modified according to Radke et al. (1988. Theor. Appl. Genet. 78: 161-168). Hypocotyls of 5 d old seedlings were cut into 1 cm segments and inoculated with a suspension of Agrobacterium tumefaciens strain EHA101 (OD660=0.1-0.5, prepared according to standard procedures). After inoculation, the explants were dried carefully on filterpaper before co-cultivation.
After co-culture, the explants were transferred to selection medium consisting of modified MS-medium (Murashige and Skoog 1962. Physiol. Plant. 15: 473-497) supplemented with 500 mg/l carbenicillin and various concentrations of sucrose and galactose. After 7-8 weeks, shoots were harvested and transgenicity was evaluated by subjecting the harvested shoots to the assay for β-glucuronidase activity (Jefferson et al. 1987. Plant Mol. Biol. Rep. 5: 387-405), a marker enzyme encoded by a gene placed adjacent the selective gene on the T-DNA of the transformation vector (FIG. 3).

[4] = test system: potato explants transformed with pVIC-galT; experiment: Selection of transgenic potato shoots (galT vector) on galactose containing media; format: cell-based, Solanum tuberosum; conditions: for No. of transgenic shoots: GUS assay
Method: Young leaves useful for the transformation of potato were prepared from leaves of 28 d old in vitro shoot cultures. The leaves were cut off avoiding the meristem at the leaf corner and were cut twice across the midvein. The explants were inoculated for 30 min. with a suspension of Agrobacterium tumefaciens strain EHA101 (OD660=0.5) harbouring the transformation vector described above. After inoculation, the explants were dried carefully on filterpaper and left for co-cultivation for 3 d in dim light.
After co-culture, the explants were transferred to selection medium consisting of MS-medium (Murashige and Skoog 1962. Physiol. Plant. 15: 473-497) supplemented with 500 mg/l carbenicillin and various concentrations of sucrose and galactose. After 3 and 6 weeks, shoots were harvested and transgenicity was evaluated by subjecting the harvested shoots to the assay for β-glucuronidase activity (Jefferson et al. 1987. Plant Mol. Biol. Rep. 5: 387-405), a marker enzyme encoded by a gene placed adjacent the selective gene on the T-DNA of the transformation vector (FIG. 4).

tissues of maize = conditions: Roberts et al.; cited from earlier work
tissues of barley = conditions: Roberts et al.; cited from earlier work
sunflower explants = experiment: Toxicity of galactose to sunflower apical explants (fresh weight); format: cell-based, Helianthus annuus; conditions: 20 g/l sucrose, 4-5 weeks, above controls on medium devoid of carbohydrate
Method: as §1
The preparation of apical explants useful for the transformation of sunflower were modified according to Knittel et al. (1994. Plant Cell Rep. 14: 81-86). The seed coats of 2 d old seedlings were gently removed and the cotyledons, the emerging root and the top of the apex were removed. The remaining part of the apex was cut off and divided into two halves and cultivated according to Knittel et al., with 20 g/l sucrose in the medium and galactose according to the experiment. After 4-5 weeks of culture at a 16 h/8 h day/night regime, growth was monitored by determining the fresh weight of the explants (above controls grown on a medium devoid of any carbohydrate source).

immature wheat embryos = experiment: Toxicity of galactose to immature wheat embryos (germination and shoot growth); format: cell-based, Triticum aestivum; conditions: 20 g/l sucrose, relative to control medium (no galactose) = 100
Method: In order to be useful for selection, the selective component (otherwise called selective agent) should not be able to sustain significant growth and preferably have adverse/toxic effects to the non-transformed cells/tissues. To assess the applicability of galactose selection following transformation, a number of plant species representing a range of different botanical families were tested for sensitivity to galactose, using explants which may be suitable for transformation experiments. As an example of a monocotyledonous species, wheat was studied. Immature wheat embryos (2-3 weeks old, a total of 161) were carefully removed from the seed and were cultivated on Gamborg B5 medium (Gamborg et al. 1968. Exp. Cell Res. 50: 151-158) supplemented with 9.0 g/l Bacto agar. 20 g/l sucrose and galactose according to the experiment. The embryos were cultivated in the dark for about 10 days where germinated embryos were transferred to fresh medium of the same composition and cultivated in a 16 h/8 h day/night regime for 4-5 weeks. The effect of galactose was evaluated by the number of germinated embryos and by measuring the length of the leaf on these embryos, relative to the control medium (no galactose).

potato leaf explants = experiment: Toxicity of galactose to potato leaf explants (shoot regeneration); format: cell-based, Solanum tuberosum
Method: In order to be useful for selection, the selective component (otherwise called selective agent) should not be able to sustain significant growth and preferably have adverse/toxic effects to the non-transformed cells/tissues. To assess the applicability of galactose selection following transformation, a number of plant species representing a range of different botanical families were tested for sensitivity to galactose, using explants which may be suitable for transformation experiments. Young leaves useful for the transformation of potato were prepared from leaves of 28 d old in vitro shoot cultures. The leaves were cut off avoiding the meristem at the leaf corner and were cut twice across the […]. The explants were then put on modified MS-medium (Murashige and Skoog 1962. Physiol. Plant. 15: 473-497) containing various concentrations of sucrose and galactose. After 3 weeks, shoots were harvested and the explants were transferred to fresh medium of the same composition. This was repeated for 2 more harvests and the total number of explants with regenerated shoots formed on each medium was calculated (see table below).

[5] = 2.5 g/l galactose, sucrose 0 g/l
[6] = 2.5 g/l galactose, sucrose 5.0 g/l
[7] = 2.5 g/l galactose, sucrose 10 g/l
[8] = 2.5 g/l galactose, sucrose 20 g/l
[9] = 5.0 g/l galactose, sucrose 0 g/l
[10] = 5.0 g/l galactose, sucrose 5.0 g/l
[11] = 5.0 g/l galactose, sucrose 10 g/l
[12] = 5.0 g/l galactose, sucrose 20 g/l
[13] = galactose 1.25 g/l, sucrose 10 g/l
[14] = galactose 1.25 g/l, sucrose 15 g/l
[15] = galactose 1.25 g/l, sucrose 20 g/l
[16] = galactose 2.5 g/l, sucrose 10 g/l
[17] = galactose 2.5 g/l, sucrose 15 g/l
[18] = galactose 2.5 g/l, sucrose 20 g/l

Compound: OC[C@H]1OC(O)[C@H](O)[C@@H](O)[C@H]1O (mixture of isomers) [galactose]
- growth of the explants (pea hypocotyl explants): unable to sustain any growth
- total number of regenerated shoots [1, 5]: 0
- total number of regenerated shoots [1, 6]: 1
- total number of regenerated shoots [1, 7]: 7
- total number of regenerated shoots [1, 8]: 26
- total number of regenerated shoots [1, 9]: 0
- total number of regenerated shoots [1, 10]: 0
- total number of regenerated shoots [1, 11]: 3
- total number of regenerated shoots [1, 12]: 22
- sensitivity to galactose (level of toxicity) (Petunia): fairly tolerant
- ability of galactose to sustain growth (Petunia; stated for all tested plant species incl. Petunia): unable to sustain growth
- fresh weight of the explants [2]: significant reduction
- number of shoots [2]: significant reduction
- Transformation frequency (%) [3]: 1.0%
- No. of transgenic shoots ([3]; shoots more than 50% β-glucuronidase-positive, 7-8 weeks): 4
- Transformation frequency (%) [4, 13]: 6.0%
- No. of transgenic shoots [4, 13]: 3
- Transformation frequency (%) [4, 14]: 14.0%
- No. of transgenic shoots [4, 14]: 7
- Transformation frequency (%) [4, 15]: 6.0%
- No. of transgenic shoots [4, 15]: 3
- Transformation frequency (%) [4, 16]: 2.0%
- No. of transgenic shoots [4, 16]: 1
- Transformation frequency (%) [4, 17]: 0%
- No. of transgenic shoots [4, 17]: 0
- Transformation frequency (%) [4, 18]: 8.0%
- No. of transgenic shoots [4, 18]: 4
- toxicity to tissues of maize (tissues of maize): toxic
- toxicity to tissues of barley (tissues of barley): toxic
- Fresh weight (sunflower explants; galactose 5.0 g/l): 28 mg/explant
- Fresh weight (sunflower explants; galactose 7.5 g/l): 0 mg/explant
- Fresh weight (sunflower explants; galactose 10 g/l): 0 mg/explant
- Fresh weight (sunflower explants; galactose 15 g/l): 0 mg/explant
- Average shoot length (immature wheat embryos; galactose 2.5 g/l): 89
- Germination of embryos (immature wheat embryos; galactose 2.5 g/l): 43
- Average shoot length (immature wheat embryos; galactose 5.0 g/l): 67
- Germination of embryos (immature wheat embryos; galactose 5.0 g/l): 29
- Average shoot length (immature wheat embryos; galactose 7.5 g/l): 0
- Germination of embryos (immature wheat embryos; galactose 7.5 g/l): 0
- Average shoot length (immature wheat embryos; galactose 10 g/l): 33
- Germination of embryos (immature wheat embryos; galactose 10 g/l): 14
- Average shoot length (immature wheat embryos; galactose 15 g/l): 0
- Germination of embryos (immature wheat embryos; galactose 15 g/l): 0
- total number of explants with regenerated shoots (potato leaf explants; [5]): 1
- total number of explants with regenerated shoots (potato leaf explants; [6]): 0
- total number of explants with regenerated shoots (potato leaf explants; [7]): 0
- total number of explants with regenerated shoots (potato leaf explants; [8]): 7
- total number of explants with regenerated shoots (potato leaf explants; [9]): 0
- total number of explants with regenerated shoots (potato leaf explants; [10]): 0
- total number of explants with regenerated shoots (potato leaf explants; [11]): 0
- total number of explants with regenerated shoots (potato leaf explants; [12]): 0

— patent US6924145B1, “Selection method” (Danisco A/S, priority 1998, dated 2005)
